Data: patent US20170253581A1, “SUBSTITUTED HETEROCYCLES AS c-MYC TARGETING AGENTS” (Northwestern University, priority 2016, published 2017)

Biological target: Myc/Max binding to DNA (Homo sapiens, UniProt P01106)
Assay: Electrophoretic mobility shift assay (EMSA) of Myc/Max binding to DNA
Assay type: biochemical
Settings: EMSA; for remaining activity at 100 µM: read-out: Bound DNA (%) (100uM); for remaining activity at 50 µM: 50 uM test compound, read-out: Bound DNA (%) (50uM); for remaining activity at 200 µM: 200 uM test compound, read-out: Bound DNA (%) (200uM)
Method: We also tested our best hit compound Min9 (NUCC-0176234) and newly synthesized analogs for effects of these compounds on Myc/Max binding to DNA in electrophoretic mobility shift assays (EMSAs). (See FIG. 5a and FIG. 5b). We expected the active compounds to impair Myc/Max binding to DNA. Several strucutural analogs of Min9 were tested over multiple doses for inhibiting Myc-DNA binding and we observed a dose-dependent inhibition. (See FIG. 5c).
Additional compounds were synthesized and tested in the EMSA assay at concentrations of 200 μM, 100 μM, and 50 μM.

Myc/Max binding to DNA, sequence (P01106 whole entry): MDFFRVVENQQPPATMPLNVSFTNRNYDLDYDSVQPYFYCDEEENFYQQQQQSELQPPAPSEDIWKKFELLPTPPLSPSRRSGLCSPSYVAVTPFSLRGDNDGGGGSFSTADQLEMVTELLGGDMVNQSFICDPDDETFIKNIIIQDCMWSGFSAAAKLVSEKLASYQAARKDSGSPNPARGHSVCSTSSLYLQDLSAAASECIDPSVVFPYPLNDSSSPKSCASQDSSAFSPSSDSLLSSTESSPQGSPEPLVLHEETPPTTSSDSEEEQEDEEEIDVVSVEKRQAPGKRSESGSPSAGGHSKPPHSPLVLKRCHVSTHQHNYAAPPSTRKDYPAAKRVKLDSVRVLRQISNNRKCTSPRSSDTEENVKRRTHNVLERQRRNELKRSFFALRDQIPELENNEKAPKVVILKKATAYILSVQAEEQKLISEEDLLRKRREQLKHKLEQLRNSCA

Row | Structure (SMILES) | remaining activity at 100 µM (100 uM test compound) [%] | further results
1 | CCc1ccc(Oc2c(-c3ccc(OCc4cccc(OC)c4)cc3O)n[nH]c2C(F)(F)F)cc1 [compound 0196297] | 45 | 
2 | COc1ccc(-c2c[nH]nc2-c2ccc(OCc3ccc(Cl)cc3)cc2O)cc1 [compound 0198304] | 98 | 
3 | Cn1nc(-c2ccc(OCc3ccc(Cl)cc3)cc2O)c(-c2cccnc2)c1C(F)(F)F [compound 0196364] | 132 | 
4 | Oc1cc(OCc2ccccc2)ccc1-c1n[nH]cc1Oc1ccccc1 [NUCC-0176255] |  | remaining activity at 200 µM: 11%
5 | Oc1cc(OCc2ccc(Cl)cc2)ccc1-c1n[nH]c(C(F)(F)F)c1-c1cc(C(F)(F)F)cc(C(F)(F)F)c1 [compound 0196362] | 33 | 
6 | Cc1cc(C)c(-c2c[nH]nc2-c2ccc(OCc3ccc(Cl)cc3)cc2O)c(C)c1 [compound 0198359] | 35 | 
7 | C/C(=N\N)c1ccc(-c2c(-c3ccc(OCc4ccc(Cl)cc4)cc3O)n[nH]c2C(F)(F)F)cc1 [compound 0198395] | 109 | 
8 | CCc1ccc(Oc2c(-c3ccc(O)cc3O)nn(C)c2C(F)(F)F)cc1 [compound 0200682] |  | remaining activity at 50 µM: 101%; Bound DNA (%) (100uM) (100 uM test compound): 95%
9 | Cn1nc(C(F)(F)F)c(-c2ccccc2)c1-c1ccc(OCc2ccc(Cl)cc2)cc1O [compound 0198296] | 74 | 
10 | Cn1nc(C(F)(F)F)c(-c2cccnc2)c1-c1ccc(OCc2ccc(Cl)cc2)cc1O [compound 0196365] | 98 | 
11 | Cn1nc(-c2ccc(OCc3ccc(Cl)cc3)cc2O)c(-c2ccc(C#N)cc2)c1C(F)(F)F [compound 0198393] | 71 | 
12 | Cc1ccc(C)c(Oc2cn(C)nc2-c2ccc(OCc3cccc(Cl)c3)cc2O)c1 [compound 0196287] | 115 | 
13 | Cn1cc(-c2cccc(Cl)c2)c(-c2ccc(OCc3ccc(Cl)cc3)cc2O)n1 [compound 0196351] | 130 | 
14 | Cn1nc(C(F)(F)F)c(-c2cc(C(F)(F)F)cc(C(F)(F)F)c2)c1-c1ccc(OCc2ccc(Cl)cc2)cc1O [compound 0196361] | 0 | 
15 | CN/N=C(\C)c1cccc(-c2c(C(F)(F)F)nn(C)c2-c2ccc(OCc3ccc(Cl)cc3)cc2O)c1 [compound 0198404] | 67 | 
16 | CCc1ccc(Oc2c(-c3ccc(OCCc4ccc(Cl)cc4)cc3O)nn(C)c2C(F)(F)F)cc1 [compound 0196356] | 68 | 
17 | COc1ccc(-c2c(-c3ccc(OCc4ccc(Cl)cc4)cc3O)nn(C)c2C(F)(F)F)cc1 [compound 0196340] | 35 | 
18 | COc1cccc(COc2ccc(-c3n[nH]cc3Oc3cc(C)ccc3C)c(O)c2)c1 [compound 0196288] | 81 | 
19 | Cc1ccc(-c2c[nH]nc2-c2ccc(OCc3ccc(Cl)cc3)cc2O)cc1 [compound 0196345] | 102 | 
20 | C/C(=N\N)c1cccc(-c2c(-c3ccc(OCc4ccc(Cl)cc4)cc3O)n[nH]c2C(F)(F)F)c1 [compound 0198403] | 44 | 

Row | Structure (SMILES) | remaining activity at 100 µM (100 uM test compound) [%] | further results
21 | CCc1ccc(Oc2c[nH]nc2-c2ccc(OCc3ccc(C(F)(F)F)cc3)cc2O)cc1 [NUCC-0176244] |  | remaining activity at 200 µM: 20%
22 | Oc1cc(OCc2ccc(Cl)cc2)ccc1-c1n[nH]cc1-c1ccoc1 [compound 0198322] | 28 | 
23 | Oc1cc(OCc2ccc(Cl)cc2)ccc1-c1n[nH]c(C(F)(F)F)c1-c1ccoc1 [compound 0198325] | 60 | 
24 | COc1ccc(-c2c(-c3ccc(OCc4ccc(Cl)cc4)cc3O)n[nH]c2C(F)(F)F)cc1 [compound 0196312] | 51 | 
25 | Cc1[nH]nc(-c2ccc(OCc3ccc(F)cc3)cc2O)c1Oc1ccccc1 [NUCC-0176259] |  | remaining activity at 200 µM: 26%
26 | Oc1cc(OCc2ccc(Cl)cc2)ccc1-c1n[nH]c(C(F)(F)F)c1Oc1ccccc1Cl [compound 0196342] | 1 | 
27 | COc1ccc(-c2c(C)nn(C)c2-c2ccc(OCc3ccc(Cl)cc3)cc2O)cc1 [compound 0198306] | 105 | 
28 | COc1cccc(-c2c(-c3ccc(OCc4ccc(Cl)cc4)cc3O)n[nH]c2C(F)(F)F)c1 [compound 0198309] | 2 | 
29 | Cn1cc(-c2c[nH]nc2-c2ccc(OCc3ccc(Cl)cc3)cc2O)cn1 [compound 0198361] | 87 | 
30 | CCc1ccc(Oc2c[nH]nc2-c2ccc(OCc3cnn(C)c3)cc2O)cc1 [NUCC-0176246] |  | remaining activity at 200 µM: 87%
31 | COc1cccc(-c2c[nH]nc2-c2ccc(OCc3ccc(Cl)cc3)cc2O)c1 [compound 0198308] | 92 | 
32 | Cc1ccc(-c2cn(C)nc2-c2ccc(OCc3ccc(Cl)cc3)cc2O)cc1 [compound 0196346] | 114 | 
33 | CN/N=C(\C)c1cccc(-c2c(-c3ccc(OCc4ccc(Cl)cc4)cc3O)nn(C)c2C(F)(F)F)c1 [compound 0198405] | 89 | 
34 | Cn1nc(-c2ccc(OCc3ccc(Cl)cc3)cc2O)c(-c2cccc(C#N)c2)c1C(F)(F)F [compound 0198400] | 48 | 
35 | Cn1nc(-c2ccc(OCc3ccc(Cl)cc3)cc2O)c(-c2ccccc2)c1C(F)(F)F [compound 0198297] | 89 | 
36 | Cn1nc(-c2ccc(OCc3ccc(Cl)cc3)cc2O)c(Oc2ccccc2Cl)c1C(F)(F)F [compound 0196304] | 13 | 
37 | N#Cc1ccc(-c2c(-c3ccc(OCc4ccc(Cl)cc4)cc3O)n[nH]c2C(F)(F)F)cc1 [compound 0198391] | 4 | 
38 | COc1cccc(-c2c(-c3ccc(OCc4ccc(Cl)cc4)cc3O)n[nH]c2C)c1 [compound 0198312] | 104 | 
39 | Oc1cc(OCc2ccc(Cl)cc2)ccc1-c1n[nH]cc1Oc1ccccc1Cl [compound 0196343] | 48 | 

Further lines, with some results ahead:

Row | remaining activity at 100 µM (100 uM test compound) [%] | Structure (SMILES) | further results
40 | 56 | Cn1nc(-c2ccc(Nc3ccc(F)c(F)c3)cc2O)cc1C(F)(F)F [compound 0200560] | remaining activity at 50 µM: 91%
41 | 104 | N#Cc1cc(-c2ccc(Nc3ccc(Cl)cc3)cc2O)n[nH]1 [compound 0200678] | 
42 | 101 | CCc1ccc(Oc2c(-c3ccccc3O)nn(C)c2C(F)(F)F)cc1 [compound 0200684] | remaining activity at 50 µM: 102%
43 | 46 | Oc1cc(OCc2ccc(Cl)cc2)ccc1-c1n[nH]c(C(F)(F)F)c1-c1ccc(Cl)c(C(F)(F)F)c1 [compound 0200732] | remaining activity at 50 µM: 89%
44 | 105 | Cn1cc(C(F)(F)F)c(-c2cnc(OCc3ccc(Cl)cc3)cn2)n1 [compound 0200747] | 
45 | 98 | Cn1nc(C(F)(F)F)cc1-c1cnc(O)cn1 [compound 0200689] | remaining activity at 50 µM: 98%
46 | 76 | Oc1cc(OCc2ccc(Cl)cc2)ccc1-c1n[nH]c(C(F)(F)F)c1-c1ccc(C(F)(F)F)cc1Cl [compound 0200737] | 
47 | 13 | Cn1nc(C(F)(F)F)c(Br)c1-c1ccc(OCc2ccc(Cl)cc2)cc1O [compound 0198407] | 
48 | 94 | Nc1nc(-c2ccc(OCc3ccc(Cl)cc3)cc2O)cc(C(F)(F)F)n1 [compound 0200502] | remaining activity at 50 µM: 64%
49 | 95 | Cn1nc(C(F)(F)F)cc1-c1ccc(OCc2ccc(Cl)cc2)cn1 [compound 0200690] | remaining activity at 50 µM: 98%
50 | 60 | Cn1nc(C(F)(F)F)c(-c2ccc(F)c(C(F)(F)F)c2)c1-c1ccc(OCc2ccc(Cl)cc2)cc1O [compound 0200735] | remaining activity at 50 µM: 84%
51 | 78 | CCc1c(C(F)(F)F)n[nH]c1-c1ccc(OCc2ccc(Cl)cc2)cc1O [compound 0200739] | 
52 | 78 | Cc1ccc(-c2c(C(F)(F)F)n[nH]c2-c2cc(OCc3ccc(Cl)cc3)ccc2O)cc1 [compound 0200572] | remaining activity at 50 µM: 85%
53 | 75 | CCCc1c(C(F)(F)F)n[nH]c1-c1ccc(OCc2ccc(Cl)cc2)cc1O [compound 0200740] | remaining activity at 50 µM: 93%
54 | 91 | Cn1nc(C(F)(F)F)cc1-c1ccc(OCc2ccc(Cl)cc2)cc1O [compound 0198412] | 
55 | 20 | CCc1ccc(Oc2c(-c3ccccc3O)n[nH]c2C(F)(F)F)cc1 [compound 0200683] | remaining activity at 50 µM: 87%
56 | 101 | Cn1cc(-c2ccc(OCc3ccc(Cl)cc3)cc2N)c(C(F)(F)F)n1 [compound 0200746] | 
57 | 89 | Oc1cc(OCc2ccc(Cl)cc2)ccc1-c1n[nH]c(C(F)(F)F)c1-c1ccc(C(F)(F)F)c(Cl)c1 [compound 0200728] | 
58 | 109 | Nc1ccc(-c2cc(C(F)(F)F)[nH]n2)c(O)c1 [compound 0200497] | remaining activity at 50 µM: 107%
59 | 91 | Oc1cc(OCc2ccc(Cl)cc2)ccc1-c1n[nH]c(C(F)(F)F)c1-c1ccc(F)c(C(F)(F)F)c1 [compound 0200734] | 
60 | 8 | CCc1ccc(Oc2c(-c3ccc(Oc4ccc(Cl)cc4)cc3O)n[nH]c2C(F)(F)F)cc1 [compound 0200681] | remaining activity at 50 µM: 90%
61 | 101 | Cn1cc(C(F)(F)F)c(-c2ccc(OCc3ccc(Cl)cc3)cc2F)n1 [compound 0200743] | 
62 | 18 | Cn1nc(C(F)(F)F)c(-c2ccc(C(F)(F)F)cc2Cl)c1-c1ccc(OCc2ccc(Cl)cc2)cc1O [compound 0200738] | remaining activity at 50 µM: 91%
63 | 83 | Oc1cccc(OCc2ccc(Cl)cc2)c1-c1cc(C(F)(F)F)n[nH]1 [compound 0200570] | remaining activity at 50 µM: 85%
